Laboratory results as given in patent publication US20230165252A1, “ACTIVE COMPOUND COMBINATIONS” (Bayer Aktiengesellschaft, priority 2020, published 2023).

Test: Measurement of Log P values by HPLC on reversed phase columns (EEC directive 79/831 Annex V.A8), methods [a], [b], [c]
Assay type: physicochemical
Conditions: HPLC method [a]
Protocol: Measurement of Log P values as provided herein was performed according to EEC directive 79/831 Annex V.A8 by HPLC (High Performance Liquid Chromatography) on reversed phase columns with the following methods: • ^[a]

| Compound | LogP |
| --- | --- |
| Cc1nnc(Oc2cccc(C(F)F)c2F)c(C(=O)NCC(F)c2ccc(Br)cc2Cl)c1C (racemic) [I-369] | 3.65^[a] |
| O=C(NCC(F)(F)c1ccc(C2CC2)cc1Cl)c1cc(Cl)nnc1Oc1cccc(C(F)(F)F)c1 [I-360] | 4.58^[a] |
| Cc1ccc(C(F)(F)CNC(=O)c2cc(-c3ccncc3)nnc2Oc2cccc(C(F)(F)F)c2)c(C)c1 [I-316] | 3.65^[a] |
| O=C(NCc1cnc2ccccc2c1)c1cc(Cl)nnc1Oc1cccc(C(F)(F)F)c1 [I-306] | 2.71^[a] |
| O=C(NCCc1ccc(C(F)F)cc1)c1cc(Cl)nnc1Oc1cccc(C(F)(F)F)c1 [I-309] | 3.78^[a] |
| O=C(NCC(F)(F)c1ccc(Br)cc1Cl)c1cc(Cl)nnc1Oc1cccc(C(F)(F)F)c1F [I-315] | 4.71^[a] |
| C=C(C)c1cc(C(=O)NCC(F)(F)c2ccc(C)cc2C)c(Oc2cccc(C(F)(F)F)c2)nn1 [I-222] | 4.87^[a] |

Same assay, conditions: HPLC on reversed phase column, method [a]

| Compound | LogP |
| --- | --- |
| Cc1cc(C(=O)NCC(F)(F)c2ccc(C3CCCCC3)cc2Cl)c(Oc2cccc(C(F)(F)F)c2)nn1 [I-018] | 5.44^[a] |
| CC(=O)N(C)Cc1c(Cl)nnc(Oc2cccc(C(F)(F)F)c2)c1C(=O)NCCc1ccc(C)cc1C [I-077] | 3.65^[a] |
| CC(CNC(=O)c1cc(Cl)nnc1Oc1cccc(C(F)(F)F)c1)c1ccc(Cl)cc1Cl (centres unmarked) [I-075] | 4.68^[a] |
| O=C(NCC(F)(F)c1ccc(SCC(F)(F)F)cc1Cl)c1cc(Cl)nnc1Oc1cccc(C(F)(F)F)c1 [I-087] | 4.45^[a] |
| COc1ccc(C(F)(F)CNC(=O)c2cc(Cl)nnc2Oc2cccc(C(F)(F)F)c2)c(Cl)c1 [I-007] | 4.00^[a] |
| Cc1cnnc(Oc2cccc(C(F)(F)F)c2)c1C(=O)NCC(F)(F)c1ccc(Cl)cc1Cl [I-183] | 3.78^[a] |
| COc1ccc(CCNC(=O)c2cc(Cl)nnc2Oc2cccc(C(F)(F)F)c2)cc1 [I-036] | 3.61^[a] |
| Cc1ccc(C(F)CNC(=O)c2c(Oc3cccc(C4CC4)c3F)nnc(C)c2C)c(C)c1 (racemic) [I-836] | 3.78^[a] |

Same assay, conditions: method [a]

| Compound | LogP |
| --- | --- |
| Cc1cc(C(=O)NCCc2cccc3oc(C)nc23)c(Oc2cccc(C(F)(F)F)c2)nn1 [I-543] | 2.96^[a] |
| O=C(NCC1CNc2ccccc21)c1cc(Cl)nnc1Oc1cccc(C(F)(F)F)c1 (racemic) [I-436] | 2.42^[a] |
| Cc1ccc(C(F)(F)CNC(=O)c2cc(Cc3ccccc3)nnc2Oc2cccc(C(F)(F)F)c2)c(C)c1 [I-797] | 4.95^[a] |
| C=CCOc1c(Cl)nnc(Oc2cccc(C(F)(F)F)c2)c1C(=O)NCC(F)(F)c1ccc(C)cc1C [I-684] | 4.87^[a] |
| Cc1c(C2CC2)nnc(Oc2cccc(C(F)(F)F)c2)c1C(=O)NCC(F)(F)c1ccc(Cl)cc1Cl [I-642] | 4.43^[a] |
| Cc1ccc(C2(CNC(=O)c3cc(Cl)nnc3Oc3cccc(C(F)(F)F)c3)CC2)cc1 [I-601] | 4.58^[a] |
| O=C(NCCc1ncc(Cl)cn1)c1cc(Cl)nnc1Oc1cccc(C(F)(F)F)c1 [I-635] | 3.05^[a] |
| O=C(NCCc1ccc(-c2ccncc2)cc1)c1cc(Cl)nnc1Oc1cccc(C(F)(F)F)c1 [I-542] | 2.13^[a] |
| Cc1ccc(C(F)(F)CNC(=O)c2cc(CC3CCC3)nnc2Oc2cccc(C(F)(F)F)c2)c(C)c1 [I-798] | 5.02^[a] |
| CC(NC(=O)c1cc(Cl)nnc1Cl)c1cn(C)c2ccccc12 (racemic) [Compound 3-18] | 2.71^[a] |
| Cc1ccc(C(F)(F)CNC(=O)c2c(Oc3cccc(C(F)(F)F)c3)nnc(Cl)c2NC2CC2C2CC2)c(C)c1 (mixture of isomers) [I-812] | 4.87^[a] |
| Cc1ccc(C(F)(F)CNC(=O)c2cc(C3CCOC3)nnc2Oc2cccc(C(F)(F)F)c2)c(C)c1 (racemic) [I-794] | 3.78^[a] |
| Cc1ccc(C(F)(F)CNC(=O)c2c(Oc3cccc(C(F)(F)F)c3)nnc(C3CC3)c2NC2CC2)c(C)c1 [I-650] | 4.10^[a] |
| Cc1cc(C(=O)NCCc2ccc(C(F)F)cn2)c(Oc2cccc(C(F)(F)F)c2)nn1 [I-525] | 2.57^[a]; |
| O=C(NCC(F)c1ccc(Cl)cc1Cl)c1c(Oc2cccc(C3CC3)c2F)nnc(Cl)c1I (racemic) [I-758] | 4.73^[a] |
| Cc1ccc(C(F)CNC(=O)c2c(Cl)nnc(Cl)c2C)c(Cl)c1 (racemic) [Compound 3-23] | 3.22^[a] |

Same assay, conditions: method [a]: LC-UV, acidic range, 0.1% formic acid in water and acetonitrile as eluent (10% to 95% acetonitrile); Table 3, compounds of formula (1)

| Compound | LogP |
| --- | --- |
| COC(=O)c1c(Oc2cccc(C(F)(F)F)c2)nnc(Cl)c1-n1cccn1 [Compound 1-084] | 3.53^[a] |
| Cc1c(Cl)nnc(Oc2cccc(C(F)F)c2F)c1C(=O)O [Compound 1-117] | 1.49^[a] |
| CNc1c(Cl)nnc(Oc2cccc(C3CC3)c2F)c1C(=O)O [Compound 1-116] | 1.97^[a] |
| Cc1cc(C(=O)O)c(Oc2cccc(C(F)(F)F)c2)nn1 [Compound 1-125] | 1.92^[a] |
| CC(C)OC(=O)c1cc(-c2ccncc2Cl)nnc1Oc1cccc(F)c1F [Compound 1-074] | 3.65^[a] |
| Cc1nnc(Oc2cccc(C3CC3)c2)c(C(=O)O)c1C [Compound 1-037] | 1.10^[a] |
| O=C(O)c1cc(C(F)(F)F)nnc1Oc1cccc(C(F)(F)F)c1 [Compound 1-057] | 2.27^[a] |
| O=C(O)c1cc(N2CCCC2)nnc1Oc1cccc(C(F)(F)F)c1 [Compound 1-021] | 1.08^[a] |
| O=C(O)c1cc(Cl)nnc1Oc1cccc(F)c1F [Compound 1-024] | 1.65^[a] |
| Cc1c(Cl)nnc(Oc2cccc(Cl)c2F)c1C(=O)O [Compound 1-122] | 1.68^[a] |
| N#Cc1cc(C(=O)O)c(Oc2cccc(C(F)(F)F)c2)nn1 [Compound 1-007] | 1.74^[a] |
| C#Cc1cccc(Oc2nnc(Cl)cc2C(=O)O)c1 [Compound 1-017] | 1.50^[a] |

Same assay, conditions: method [a]: LC-UV, acidic range, 0.1% formic acid in water and acetonitrile as eluent; Table 5, compounds of formula (2)

| Compound | LogP |
| --- | --- |
| Cc1cc(C(F)F)ccc1C(F)CN (racemic) [Compound 2-06] | 0.69^[a] |
| Cc1cc(C)c(C(F)(F)CN)c(F)c1 [Compound 2-03] | 0.95^[a] |
| NCC(F)c1ccc(I)cc1 (racemic) [Compound 2-05] | 0.73^[a] |

Same assay, conditions: reversed-phase HPLC column, HPLC method [a]

| Compound | chromatographic logP |
| --- | --- |
| Cc1ccc(C(F)(F)CNC(=O)c2c(Oc3cccc(C(F)(F)F)c3)nnc(Cl)c2NC2COC2)c(C)c1 [Compound I-408, 6-chloro-N-[2-(2,4-dimethylphenyl)-2,2-difluoro-ethyl]-5-(oxetan-3-ylamino)-3-[3-(trifluoromethyl)phenoxy]pyridazine-4-carboxamide] | 3.85 |
| CCc1c(Cl)nnc(Oc2cccc(C(F)(F)F)c2)c1C(=O)NCC(F)(F)c1ccc(Cl)cc1 [Compound I-254, 6-chloro-N-[2-(4-chlorophenyl)-2,2-difluoro-ethyl]-5-ethyl-3-[3-(trifluoromethyl)phenoxy]pyridazine-4-carboxamide] | 4.51 |

Same assay, conditions: reversed-phase HPLC column, HPLC method [b]

| Compound | chromatographic logP |
| --- | --- |
| Cc1ccc(C(F)(F)CNC(=O)c2c(Oc3cccc(C(F)(F)F)c3)nnc(Cl)c2NC2COC2)c(C)c1 [Compound I-408, 6-chloro-N-[2-(2,4-dimethylphenyl)-2,2-difluoro-ethyl]-5-(oxetan-3-ylamino)-3-[3-(trifluoromethyl)phenoxy]pyridazine-4-carboxamide] | 3.94 |

Same assay, conditions: reversed-phase HPLC column, HPLC on reversed phase column, method [a]

| Compound | chromatographic logP |
| --- | --- |
| COCCc1c(Cl)nnc(Oc2cccc(C(F)(F)F)c2)c1C(=O)NCC(F)(F)c1ccc(Br)cc1Cl [Compound I-070, N-[2-(4-bromo-2-chloro-phenyl)-2,2-difluoro-ethyl]-6-chloro-5-(2-methoxyethyl)-3-[3-(trifluoromethyl)phenoxy]pyridazine-4-carboxamide] | 4.77 |

Same assay, conditions: reversed-phase HPLC column, method [a]

| Compound | chromatographic logP |
| --- | --- |
| O=C(NCC(F)(F)c1ccc(Br)cc1Cl)c1cc(Cl)nnc1Oc1cccc(F)c1F [Compound I-530, N-[2-(4-bromo-2-chloro-phenyl)-2,2-difluoro-ethyl]-6-chloro-3-(2,3-difluorophenoxy)pyridazine-4-carboxamide] | 4.27 |
| CC(=O)c1cc(C(=O)NCC(F)c2ccc(Br)cc2Cl)c(Oc2cccc(C(F)(F)F)c2)nn1 (racemic) [Compound I-605, 6-acetyl-N-[rac-2-(4-bromo-2-chloro-phenyl)-2-fluoro-ethyl]-3-[3-(trifluoromethyl)phenoxy]pyridazine-4-carboxamide] | 4.49 |
| Cc1ccc(C(F)(F)CNC(=O)c2c(Oc3cccc(Cl)c3)nnc(Cl)c2C)c(C)c1 [Compound I-790, 6-chloro-3-(3-chlorophenoxy)-N-[2-(2,4-dimethylphenyl)-2,2-difluoro-ethyl]-5-methyl-pyridazine-4-carboxamide] | 4.27 |

Same assay, conditions: reversed-phase HPLC column, method [a]: LC-UV, acidic range, 0.1% formic acid in water and acetonitrile as eluent (10% to 95% acetonitrile); Table 3, compounds of formula (1)

| Compound | chromatographic logP |
| --- | --- |
| CCOC(=O)c1cc(C)nnc1Oc1cccc(C2CC2)c1F [Compound 1-112] | 3.29 |
| COC(=O)c1c(Oc2cccc(C(F)(F)F)c2)nnc(Cl)c1Cl [Compound 1-049] | 3.86 |
| COC(=O)c1cc(Cl)nnc1Oc1cccc(C2CC2)c1F [Compound 1-099] | 3.45 |
| C=Cc1c(Cl)nnc(Oc2cccc(C(F)(F)F)c2)c1C(=O)OC [Compound 1-069, methyl 6-chloro-3-[3-(trifluoromethyl)phenoxy]-5-vinyl-pyridazine-4-carboxylate] | 3.94 |
| CCOC(=O)c1cc(Cl)nnc1Oc1cccc(Br)c1 [Compound 1-130] | 3.65 |
| COC(=O)c1cc(Cl)nnc1Oc1cccc(C(F)(F)F)c1 [Compound 1-079] | 3.27 |
| CCOC(=O)c1cc(Cl)nnc1Oc1cncc(C(F)(F)F)c1 [Compound 1-088] | 3 |
| COC(=O)c1c(Oc2cccc(C(F)(F)F)c2)nnc(Cl)c1-c1ccccc1 [Compound 1-085] | 4.25 |
| COC(=O)c1c(Oc2cccc(C(F)(F)F)c2)nnc(Cl)c1C1CC1 [Compound 1-001] | 3.94 |
| COC(=O)c1c(Oc2cccc(C(F)(F)F)c2F)nnc(Cl)c1Cl [Compound 1-064] | 3.96 |
| Cc1c(Cl)nnc(Oc2cccc(Cl)c2)c1C(=O)O [Compound 1-002, 6-chloro-3-(3-chlorophenoxy)-5-methyl-pyridazine-4-carboxylic acid] | 1.39 |

Same assay, conditions: reversed-phase HPLC column; method [b]: LC-UV, neutral range, 0.001 molar ammonium acetate solution in water and acetonitrile as eluent (10% to 95% acetonitrile); Table 3, compounds of formula (1)

| Compound | chromatographic logP |
| --- | --- |
| CCOC(=O)c1cc(Cl)nnc1Oc1cncc(C2CC2)c1 [Compound 1-076] | 2.6 |
